{"source": "patent US6737383B1", "about": "“Herbicidal oxadiazolidines” (priority 1999, dated 2004)", "key": {"purple nutsedge": {"system": "purple nutsedge", "test": "Test D purple nutsedge", "type": "in vivo, Cyperus rotundus", "conditions": "Preemergence, 0 to 100 scale", "text": "(§1) Seeds, tubers, or plant parts of Alexandergrass (Brachiaria plantaginea), bermuda-grass (Cynodon dactylon), common pursiane (Portulaca oleracea), common ragweed (Ambrosia elatior), common groundsel (Senecio vulgaris), dallisgrass (Paspalum dilatatum), goosegrass (Eleusine indica), guineagrass (Panicum maximum), itchgrass (Rottboellia exaltata), Johnson grass (Sorghum halepense), large crabgrass (Digitaria sanguinalis), pitted morningglory (Ipomoea lacunosa), purple nutsedge (Cyperus rotundus), sandbur (Cenchrus echinatus), sourgrass (Trichachne insularis), Spanishneedles (Bidens bipinnata), surinam grass (Brachiaria decumbens) and tall mallow (Malva sylvestris) were planted into greenhouse pots of flats containing greenhouse planting medium. Plant species were grown in separate pots or individual compartments. Preemergence applications were made within one day of planting the seed or plant part.\n(§2) Test chemicals were formulated in a non-phytotoxic solvent mixture which included a surfactant and applied preemergence to the surface of the pot containing seeds in a sandy loam soil. Untreated control pots and treated pots were placed in the greenhouse for growth and visually evaluated for injury 14 to 21 days after herbicide application. Plant response ratings, summarized in Table C, are based on a 0 to 100 scale where 0 is no injury and 100 is complete control. A dash (−) response means no test result."}, "large crabgrass": {"system": "large crabgrass", "test": "Test D large crabgrass", "type": "in vivo, Digitaria sanguinalis", "conditions": "Preemergence, 0 to 100 scale", "text": "as §1, §2"}, "dallisgrass": {"system": "dallisgrass", "test": "Test D dallisgrass", "type": "in vivo, Paspalum dilatatum", "conditions": "Preemergence, 0 to 100 scale", "summary_of_the_method": "(§3)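 Greenhouse pots, seeds in sandy loam; compounds formulated in non-phytotoxic solvent with surfactant; preemergence treatments went on the soil surface within one day of planting. Injury rated visually 14 to 21 days after application on a 0 (none) to 100 (complete control) scale.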"}, "surinam grass [1]": {"system": "surinam grass", "test": "Test D surinam grass", "type": "in vivo, Brachiaria decumbens", "conditions": "Preemergence, 0 to 100 scale", "summary_of_the_method": "as §3"}, "goosegrass": {"system": "goosegrass", "test": "Test D goosegrass", "type": "in vivo, Eleusine indica", "conditions": "Preemergence, 0 to 100 scale", "text": "as §1, §2"}, "common ragweed": {"system": "common ragweed", "test": "Test D common ragweed", "type": "in vivo, Ambrosia elatior", "conditions": "Preemergence, 0 to 100 scale", "text": "as §1, §2"}, "guineagrass": {"system": "guineagrass", "test": "Test D guineagrass", "type": "in vivo, Panicum maximum", "conditions": "Preemergence, 0 to 100 scale", "summary_of_the_method": "as §3"}, "tall mallow": {"system": "tall mallow", "test": "Test D tall mallow", "type": "in vivo, Malva sylvestris", "conditions": "Preemergence, 0 to 100 scale", "summary_of_the_method": "as §3"}, "Alexandergrass": {"system": "Alexandergrass", "test": "Test D Alexandergrass", "type": "in vivo, Brachiaria plantaginea", "conditions": "Preemergence, 0 to 100 scale", "summary_of_the_method": "as §3"}, "sandbur": {"system": "sandbur", "test": "Test D sandbur", "type": "in vivo, Cenchrus echinatus", "conditions": "Preemergence, 0 to 100 scale", "text": "as §1, §2"}, "common pursiane": {"system": "common pursiane", "test": "Test D common purslane", "type": "in vivo, Portulaca oleracea", "conditions": "Preemergence, 0 to 100 scale", "summary_of_the_method": "as §3"}, "Johnson grass": {"system": "Johnson grass", "test": "Test D Johnson grass", "type": "in vivo, Sorghum halepense", "conditions": "Preemergence, 0 to 100 scale", "summary_of_the_method": "as §3"}, "surinam grass [2]": {"system": "surinam grass", "test": "Test C postemergence surinam grass", "type": "in vivo, Brachiaria decumbens", "conditions": "0 to 100 scale, 0 no effect, 100 complete control", "summary_of_the_method": "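Foliar postemergence treatment of greenhouse plants grown in 60:40 sandy loam:potting mix; compounds delivered in non-phytotoxic solvent with surfactant. Evaluation is visual, 0–100, after ~14–21 d.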"}, "[3]": {"conditions": "Rate 16 g/ha, 0 no injury, 100 complete control"}, "[4]": {"conditions": "Rate 32 g/ha, 0 no injury, 100 complete control"}, "[5]": {"conditions": "Rate 64 g/ha, 0 no injury, 100 complete control"}, "[6]": {"conditions": "Rate 125 g/ha, 0 no injury, 100 complete control"}}, "data": [{"smiles": "Cc1ccccc1-n1c(=O)on(C(=O)N(c2ccc(F)cc2)C(C)C)c1=O", "note": "[Compound 4]", "values": [{"measurement": "Plant response rating, Purple nutsedge", "setting": "purple nutsedge; [3]", "value": 0}, {"measurement": "Plant response rating, Purple nutsedge", "setting": "purple nutsedge; [4]", "value": 0}, {"measurement": "Purple nutsedge plant response rating", "setting": "purple nutsedge; [5]", "value": 0}, {"measurement": "Purple nutsedge plant response rating", "setting": "purple nutsedge; [6]", "value": 0}, {"measurement": "Plant response rating, Purple nutsedge", "setting": "purple nutsedge; Rate 250 g/ha", "value": 0}, {"measurement": "Plant response rating, Purple nutsedge", "setting": "purple nutsedge; Rate 500 g/ha", "value": 0}, {"measurement": "Plant response rating, Large crabgrass", "setting": "large crabgrass; [3]", "value": 100}, {"measurement": "Plant response rating, Large crabgrass", "setting": "large crabgrass; [4]", "value": 100}, {"measurement": "Plant response rating, Large crabgrass", "setting": "large crabgrass; [5]", "value": 98}, {"measurement": "Plant response rating, Large crabgrass", "setting": "large crabgrass; [6]", "value": 100}, {"measurement": "Plant response rating, Large crabgrass", "setting": "large crabgrass; Rate 250 g/ha", "value": 100}, {"measurement": "Plant response rating, Large crabgrass", "setting": "large crabgrass; Rate 500 g/ha", "value": 100}, {"measurement": "Plant response rating, Dallisgrass", "setting": "dallisgrass; [3]", "value": 75}, {"measurement": "Plant response rating, Dallisgrass", "setting": "dallisgrass; [4]", "value": 85}, {"measurement": "Plant response rating, Dallisgrass", "setting": "dallisgrass; [5]", "value": 90}, {"measurement": "Plant response rating, Dallisgrass", "setting": "dallisgrass; [6]", "value": 98}, {"measurement": "Plant response rating, Dallisgrass", "setting": "dallisgrass; Rate 250 g/ha", "value": 98}, {"measurement": "Plant response rating, Dallisgrass", "setting": "dallisgrass; Rate 500 g/ha", "value": 98}, {"measurement": "Plant response rating, Surinam grass", "setting": "surinam grass [1]; [3]", "value": 0}, {"measurement": "Plant response rating, Surinam grass", "setting": "surinam grass [1]; [4]", "value": 0}, {"measurement": "Surinam grass plant response rating", "setting": "surinam grass [1]; [5]", "value": 65}, {"measurement": "Surinam grass plant response rating", "setting": "surinam grass [1]; [6]", "value": 90}, {"measurement": "Plant response rating, Surinam grass", "setting": "surinam grass [1]; Rate 250 g/ha", "value": 85}, {"measurement": "Plant response rating, Surinam grass", "setting": "surinam grass [1]; Rate 500 g/ha", "value": 98}, {"measurement": "Plant response rating, Goosegrass", "setting": "goosegrass; [3]", "value": 70}, {"measurement": "Plant response rating, Goosegrass", "setting": "goosegrass; [4]", "value": 85}, {"measurement": "Plant response rating, Goosegrass", "setting": "goosegrass; [5]", "value": 95}, {"measurement": "Plant response rating, Goosegrass", "setting": "goosegrass; [6]", "value": 98}, {"measurement": "Plant response rating, Goosegrass", "setting": "goosegrass; Rate 250 g/ha", "value": 98}, {"measurement": "Plant response rating, Goosegrass", "setting": "goosegrass; Rate 500 g/ha", "value": 100}, {"measurement": "Plant response rating, C. ragweed", "setting": "common ragweed; [3]", "value": 0}, {"measurement": "Plant response rating, C. ragweed", "setting": "common ragweed; [4]", "value": 0}, {"measurement": "Plant response rating, C. ragweed", "setting": "common ragweed; [5]", "value": 0}, {"measurement": "Plant response rating, C. ragweed", "setting": "common ragweed; [6]", "value": 0}, {"measurement": "Plant response rating, C. ragweed", "setting": "common ragweed; Rate 250 g/ha", "value": 0}, {"measurement": "Plant response rating, C. ragweed", "setting": "common ragweed; Rate 500 g/ha", "value": 0}, {"measurement": "Plant response rating, Guineagrass", "setting": "guineagrass; [3]", "value": 20}, {"measurement": "Plant response rating, Guineagrass", "setting": "guineagrass; [4]", "value": 20}, {"measurement": "Plant response rating, Guineagrass", "setting": "guineagrass; [5]", "value": 50}, {"measurement": "Plant response rating, Guineagrass", "setting": "guineagrass; [6]", "value": 90}, {"measurement": "Plant response rating, Guineagrass", "setting": "guineagrass; Rate 250 g/ha", "value": 100}, {"measurement": "Plant response rating, Guineagrass", "setting": "guineagrass; Rate 500 g/ha", "value": 100}, {"measurement": "Plant response rating, Tall Mallow", "setting": "tall mallow; [3]", "value": 0}, {"measurement": "Plant response rating, Tall Mallow", "setting": "tall mallow; [4]", "value": 0}, {"measurement": "Tall Mallow plant response rating", "setting": "tall mallow; [5]", "value": 0}, {"measurement": "Tall Mallow plant response rating", "setting": "tall mallow; [6]", "value": 0}, {"measurement": "Plant response rating, Tall Mallow", "setting": "tall mallow; Rate 250 g/ha", "value": 30}, {"measurement": "Plant response rating, Tall Mallow", "setting": "tall mallow; Rate 500 g/ha", "value": 30}, {"measurement": "Plant response rating, Alexandergrass", "setting": "Alexandergrass; [3]", "value": 20}, {"measurement": "Plant response rating, Alexandergrass", "setting": "Alexandergrass; [4]", "value": 20}, {"measurement": "Plant response rating, Alexandergrass", "setting": "Alexandergrass; [5]", "value": 80}, {"measurement": "Plant response rating, Alexandergrass", "setting": "Alexandergrass; [6]", "value": 80}, {"measurement": "Plant response rating, Alexandergrass", "setting": "Alexandergrass; Rate 250 g/ha", "value": 90}, {"measurement": "Plant response rating, Alexandergrass", "setting": "Alexandergrass; Rate 500 g/ha", "value": 100}, {"measurement": "Plant response rating, Sandbur", "setting": "sandbur; [3]", "value": 0}, {"measurement": "Plant response rating, Sandbur", "setting": "sandbur; [4]", "value": 0}, {"measurement": "Sandbur plant response rating", "setting": "sandbur; [5]", "value": 65}, {"measurement": "Sandbur plant response rating", "setting": "sandbur; [6]", "value": 30}, {"measurement": "Plant response rating, Sandbur", "setting": "sandbur; Rate 250 g/ha", "value": 90}, {"measurement": "Plant response rating, Sandbur", "setting": "sandbur; Rate 500 g/ha", "value": 100}, {"measurement": "Plant response rating, C. purslane", "setting": "common pursiane; [3]", "value": 0}, {"measurement": "Plant response rating, C. purslane", "setting": "common pursiane; [4]", "value": 0}, {"measurement": "Plant response rating, C. purslane", "setting": "common pursiane; [5]", "value": 0}, {"measurement": "Plant response rating, C. purslane", "setting": "common pursiane; [6]", "value": 0}, {"measurement": "Plant response rating, C. purslane", "setting": "common pursiane; Rate 250 g/ha", "value": 0}, {"measurement": "Plant response rating, C. purslane", "setting": "common pursiane; Rate 500 g/ha", "value": 0}, {"measurement": "Plant response rating, Johnsongrass", "setting": "Johnson grass; [3]", "value": 0}, {"measurement": "Plant response rating, Johnsongrass", "setting": "Johnson grass; [4]", "value": 0}, {"measurement": "Plant response rating, Johnsongrass", "setting": "Johnson grass; [5]", "value": 30}, {"measurement": "Plant response rating, Johnsongrass", "setting": "Johnson grass; [6]", "value": 0}, {"measurement": "Plant response rating, Johnsongrass", "setting": "Johnson grass; Rate 250 g/ha", "value": 30}, {"measurement": "Plant response rating, Johnsongrass", "setting": "Johnson grass; Rate 500 g/ha", "value": 30}]}, {"smiles": "CC(C)N(C(=O)n1oc(=O)n(Cc2cccs2)c1=O)c1ccc(F)cc1", "note": "[Compound 80]", "values": [{"measurement": "Plant response rating, Surinam grass", "setting": "surinam grass [2]; Rate 140 g/ha", "value": 0}, {"measurement": "Plant response rating, Surinam grass", "setting": "surinam grass [2]; Rate 280 g/ha", "value": 0}, {"measurement": "Plant response rating, Surinam grass", "setting": "surinam grass [2]; Rate 560 g/ha", "value": 0}, {"measurement": "Plant response rating, Surinam grass", "setting": "surinam grass [2]; Rate 1120 g/ha", "value": 10}]}]}
